These results are taken from ChEMBL document CHEMBL1142688, “Development and preliminary optimization of indole-N-acetamide inhibitors of hepatitis C virus NS5B polymerase” (J Med Chem, 2005).

Some results are limits rather than exact numbers.

For data set [1], the system named is Hepatitis C virus. The experiment in a line: (§1) Cytotoxic concentration against hepatitis C virus. Type of data set: functional, Hepacivirus hominis.
Data set [2] deals with T1, RNA-directed RNA polymerase (Hepacivirus hominis, UniProt O39930). In words: Inhibitory activity against RNA dependent RNA polymerase nonstructural protein 5B in hepatitis C virus; n=1.
For data set [3], the target named is T1, RNA-directed RNA polymerase. In words: Effective concentration to inhibit the activity of RNA dependent RNA polymerase nonstructural protein 5B in hepatitis C virus; n=1.
For data set [4], the system named is Hepatitis C virus. The experiment in a line: Effective concentration to inhibit RNA replication in hepatitis C virus. Format: functional, organism-based, Hepacivirus hominis.
Data set [5] concerns the target T1, RNA-directed RNA polymerase. In words: Inhibitory concentration against RNA dependent RNA polymerase nonstructural protein 5B of hepatitis C virus.
A short description of data set [6]: Total clearance after administration of 20 mg/kg in dog. Type of data set: ADME, organism-based, Canis lupus familiaris. Details: dose 20 mg/kg. Conditions: in vivo.
A short description of data set [7]: as §1. Format: functional, Hepacivirus hominis.
Data set [8] in a line: Half life after administration of 20 mg/kg in dog. Conditions: in vivo. Format: ADME, organism-based, Canis lupus familiaris. Also on record: dose 20 mg/kg.
A further data set deals with Hepacivirus hominis. In words: Concentration to inhibit hepatitis C virus replication by 85%. Format: functional.
Data set [9] deals with T1, RNA-directed RNA polymerase. The experiment in a line: Inhibitory concentration against NS5B polymerase of Hepatitis C virus; n=1.

T1 sequence (O39930 whole entry): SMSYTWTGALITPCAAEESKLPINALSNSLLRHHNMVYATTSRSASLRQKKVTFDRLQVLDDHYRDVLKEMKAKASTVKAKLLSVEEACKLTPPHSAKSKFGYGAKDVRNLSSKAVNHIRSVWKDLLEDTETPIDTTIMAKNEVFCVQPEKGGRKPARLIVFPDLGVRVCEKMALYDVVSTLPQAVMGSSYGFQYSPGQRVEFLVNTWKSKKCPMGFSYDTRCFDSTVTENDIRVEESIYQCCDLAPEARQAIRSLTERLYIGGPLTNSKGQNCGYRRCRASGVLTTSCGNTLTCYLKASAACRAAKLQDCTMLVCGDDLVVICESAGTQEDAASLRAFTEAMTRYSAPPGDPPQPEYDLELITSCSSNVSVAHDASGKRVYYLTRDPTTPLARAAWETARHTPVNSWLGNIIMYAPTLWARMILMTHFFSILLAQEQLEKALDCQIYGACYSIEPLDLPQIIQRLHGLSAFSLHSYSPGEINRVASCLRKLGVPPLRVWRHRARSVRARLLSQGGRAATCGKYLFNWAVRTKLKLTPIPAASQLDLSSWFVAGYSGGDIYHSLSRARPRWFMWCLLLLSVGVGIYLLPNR

As to `Cc1ccc(-c2c(C3CCCCC3)c3ccc(C(=O)O)cc3n2CC(=O)N2CCOCC2)cc1`, the CC50 in the data set on Hepatitis C virus [1] was > 50000 nM. The same compound returned an IC50 in [2] of 11 nM. This compound gave an EC50 in data set [3] of 300 nM.

Take `O=C(O)c1ccc2c(c1)nc(-c1ccc(OCc3cc(C(=O)N4CCC(O)CC4)ccc3-c3ccc(Cl)cc3)cc1F)n2C1CCCCC1`: the EC50 in the data set with Hepatitis C virus [4] was found to be 500 nM. For the same compound, the IC50 in data set [5] was < 6 nM.

For `O=C(O)c1ccc2c(c1)nc(-c1ccc(O)cc1)n2C1CCCCC1`, the IC50 in data set [5] is 3 nM.

`CN(C)C(=O)Cn1c(-c2ccccc2)c(C2CCCCC2)c2ccc(C(=O)O)cc21` had a clearance in [6] of 3 mL/min/kg. For the same compound, the CC50 in data set [7] is > 50000 nM. The compound further registered an IC50 in data set [2] of 59 nM. In addition, in data set [8], the half-life is 4.8 h.

Take `CN(C)C(=O)Cn1c(-c2cccc(F)c2)c(C2CCCCC2)c2ccc(C(=O)O)cc21`: in data set [7], the CC50 was > 50000 nM. The IC50 in data set [2] was 18 nM.

Consider `CN(C)C(=O)Cn1c(-c2cccc(Cl)c2)c(C2CCCCC2)c2ccc(C(=O)O)cc21`, for which, in data set [7], the CC50 is > 50000 nM. In data set [2], this compound displayed an IC50 of 40 nM.

The compound `O=C(O)c1ccc2c(c1)nc(-c1ccc(O)cc1F)n2C1CCCCC1` registered an IC50 in [5] of 1.4 nM.

For `O=C(O)c1ccc2c(C3CCCCC3)c(-c3ccccc3)n(S(=O)(=O)c3ccccc3)c2c1`, the IC50 in data set [2] was determined as 485 nM.

`CS(=O)(=O)NC(=O)Cn1c(-c2ccccc2)c(C2CCCCC2)c2ccc(C(=O)O)cc21` registered an IC50 in [2] of 45 nM.

Compound `Cn1c(-c2ccccc2)c(C2CCCCC2)c2ccc(C(=O)O)cc21` displayed an IC50 in data set [2] of 28 nM.

Regarding `O=C(O)c1ccc2c(C3CCCCC3)c(-c3ccc(O)cc3)[nH]c2c1`, the IC50 in data set [5] was 4.8 nM.

Regarding `CN(C)C(=O)Cn1c(-c2ccc(OCc3ccccc3)cc2)c(C2CCCCC2)c2ccc(C(=O)O)cc21`, the CC50 in data set [7] was > 50000 nM. Also, in data set [2], inhibition was half-maximal at 6 nM (IC50). Moreover, in the data set with Hepacivirus hominis, the Concentration turned out to be 0.3 µM.

`CN(C)C(=O)Cn1c(-c2ccc(Cl)cc2)c(C2CCCCC2)c2ccc(C(=O)O)cc21` had an IC50 in data set [9] of 15 nM. Also, in data set [7], the CC50 was > 50000 nM.

As for `O=C(O)c1ccc2c(C3CCCCC3)c(-c3ccccc3)n(Cc3ccccc3)c2c1`, it took 37 nM to reach half-maximal inhibition in [2] (IC50).

Regarding `O=C(O)c1ccc2c(C3CCCCC3)c(-c3ccccc3)[nH]c2c1`, the IC50 in data set [2] turned out to be 48 nM.

Consider `CN(C)C(=O)Cn1c(-c2ccccc2Cl)c(C2CCCCC2)c2ccc(C(=O)O)cc21`, for which the CC50 in data set [7] is > 50000 nM. The same compound gave an IC50 in [2] of 372 nM.

`O=C(O)c1ccc2c(c1)cc(-c1ccc(O)cc1)n2C1CCCCC1` showed an IC50 in data set [5] of 340 nM.

In turn, `O=C(O)c1ccc2c(C3CCCCC3)c(-c3ccccc3)n(CCN3CCOCC3)c2c1` displayed an IC50 in data set [2] of 111 nM.

Turning to `O=C(O)c1ccc2c(C3CCCCC3)c(-c3ccccc3)n(CC(=O)N3CCOCC3)c2c1`, the CC50 in data set [7] was > 50000 nM. Further, the IC50 in data set [2] worked out at 26 nM.

With `COc1ccc(-c2c(C3CCCCC3)c3ccc(C(=O)O)cc3n2CC(=O)N(C)C)cc1`, in [7], the CC50 is > 50000 nM. Also, the IC50 in data set [2] was found to be 18 nM.

For the compound `Cc1ccc(-c2c(C3CCCCC3)c3ccc(C(=O)O)cc3n2CC(=O)N(C)C)cc1`, the CC50 in [7] was > 50000 nM. This compound registered an IC50 in [2] of 17 nM.
